According to patent publication EP0522203A1, “Protein from lactic acid bacteria” (PROBICOM RESEARCH B.V., priority 1991, dated 1993):
Where two headings read alike, the source gives them in different places. *1 amine or outer side, *2 acyl side, *3 side chain or, on linkers, in order; H or OH if unused. Where a SMILES comes first, the peptide text is derived from it. The star is where a group is joined. pNA = O=[N+]([O-])c1ccc(N*)cc1; Suc = O=C(CCC(=O)[*:2])[*:1]; Cbz = O=C(OCc1ccccc1)*; Bz = O=C(c1ccccc1)*

Columns and labels:
endopeptidase = assay: Effect of potential inhibitors (chemical agents) on the endopeptidase activity (metenkaphalin hydrolysis, TLC); assay type: biochemical, L. lactis subsp. cremoris Wg2; design: key to Inhibition: +: Inhibition; -: No inhibition detectable
[1] = system: endopeptidase from L. lactis subsp. cremoris Wg2; assay: Substrate specificity: hydrolysis of peptides by the purified endopeptidase, analysed by thin layer chromatography; assay type: biochemical; design: key to Activity: +: hydrolysis; -: no hydrolysis detectable
LEP I = conditions: cited from earlier work
[2] = hydrolysis of the substrate by purified endopeptidase, analysed by TLC
[3] = 1 mM chemical agent, purified enzyme 4 µg protein preincubated 10 min at 20°C, metenkaphalin 15 min at 30°C, TLC
[4] = chromogenic substrates: TLC, hydrolysis also measured at A410

oxidized gluta thione
restoration of the enzyme activity inhibited by β-mercaptoethanol (endopeptidase; oxidizing reagents up to 5 mM): could not restore the enzyme activity

CSCC[C@H](N)C(=O)NCC(=O)NCC(=O)O [Met-Gly-Gly] (H-Met-Gly-Gly-OH)
Activity [1]: -

C[C@H](N)C(=O)N[C@@H](C)C(=O)N[C@@H](C)C(=O)N[C@@H](C)C(=O)N[C@@H](C)C(=O)N[C@@H](C)C(=O)O [Ala6]
Activity [1]: -

CSCC[C@H](NC(=O)[C@H](CC(C)C)NC(=O)CNC(=O)[C@H](Cc1ccccc1)NC(=O)[C@H](Cc1ccccc1)NC(=O)[C@H](CCC(N)=O)NC(=O)[C@H](CCC(N)=O)NC(=O)[C@@H]1CCCN1C(=O)[C@H](CCCCN)NC(=O)[C@@H]1CCCN1C(=O)[C@@H](N)CCCNC(=N)N)C(N)=O [Substance P]
Activity [1, 2]: +

NCC(=O)NCC(=O)O [Gly-Gly] (H-Gly-Gly-OH)
Activity [1]: -

O=S(=O)(O)c1ccc2c(N=Nc3ccccc3[As](=O)(O)O)c(O)c(S(=O)(=O)O)cc2c1 [Thorin]
Inhibition (endopeptidase): -

CC(C)[C@H](NC(=O)[C@@H](N)Cc1ccccc1)C(=O)O [Phe-Val] (H-Phe-Val-OH)
Activity [1]: -

CC(C)C[C@H](NC(=O)OCc1ccccc1)C(=O)NCC(=O)NCC(=O)Nc1ccc([N+](=O)[O-])cc1 [Z-Leu-Gly-Gly-pNA] (Cbz-Leu-Gly-Gly-pNA)
Activity [1]: -

CSCC[C@H](NC(=O)[C@@H](N)Cc1ccccc1)C(=O)O [Phe-Met] (H-Phe-Met-OH)
Activity [1]: -

N[C@@H](CSSC[C@H](N)C(=O)O)C(=O)O [Cystine]
Inhibition (endopeptidase; [3]): -

NCC(=O)N1CCC[C@H]1C(=O)Nc1ccc([N+](=O)[O-])cc1 [Gly-Pro-pNA] (H-Gly-Pro-pNA)
Activity [1]: -

O[C@H](CS)[C@H](O)CS (racemic) [DTT, dithiothreitol]
Inhibition (endopeptidase; [3]): -
endopeptidase activity inhibited (endopeptidase; chemical agent 1.0 mM): not

Hydroxylamine
Inhibition (endopeptidase): -

C[C@H](N)C(=O)N1CCC[C@H]1C(=O)Nc1ccc([N+](=O)[O-])cc1 [Ala-Pro-pNA] (H-Ala-Pro-pNA)
Activity [1]: -

O=C(NCC(=O)N1CCC[C@H]1C(=O)O)c1ccccc1 [Bz-Gly-Pro] (Bz-Gly-Pro-OH)
Activity [1]: -

CCOC(=O)OC(=O)OCC [DEPC]
Inhibition (endopeptidase; [3]): -

NCC(=O)N1CCC[C@H]1C(=O)NCC(=O)NCC(=O)O [Gly-Pro-Gly-Gly] (H-GPGG-OH)
Activity [1, 2]: -

O=S(=O)(F)Cc1ccccc1 [PMSF, phenylmethylsulfonylfluoride]
Inhibition (endopeptidase): +
endopeptidase activity inhibited (endopeptidase): inhibited

C[C@H](N)C(=O)N[C@@H](C)C(=O)N[C@@H](C)C(=O)N[C@@H](C)C(=O)N[C@@H](C)C(=O)O [Ala5]
Activity [1]: -

CC1=CC(=O)c2c(O)cccc2C1=O [Plumbagin]
Inhibition (endopeptidase): -
restoration of the enzyme activity inhibited by β-mercaptoethanol (endopeptidase): could not restore the enzyme activity

O=S(=O)(O)c1cc[c]([Hg][Cl])cc1 [pCMBS, p-chloromercuribenzenesulfonate]
Inhibition (endopeptidase): -
endopeptidase activity inhibited (endopeptidase): did not have an effect on the activity

oxydized insulin β-chain
Activity [1]: +
hydrolysis by the purified endopeptidase [1]: hydrolyzed
hydrolysis by LEP I (LEP I): cannot hydrolyse

β-Casein( 33- 48) (FQSEEQQQTEDELQDK; UniProt P02666 48-63, looked up, fragment)
Activity [1, 2]: -

Bradykinin (RPPGFSPFR; Bradykinin; UniProt P01042 381-389, looked up)
Activity [1, 2]: +

CC(C)C[C@H](NC(=O)[C@H](CC(C)C)NC(=O)[C@@H](N)CC(C)C)C(=O)O [Leu-Leu-Leu] (H-Leu-Leu-Leu-OH)
Activity [1]: -

CC(C)[C@H](NC(=O)CN)C(=O)N[C@@H](Cc1ccccc1)C(=O)O [Gly-Val-Phe] (H-Gly-Val-Phe-OH)
Activity [1]: -

N[C@@H](Cc1ccc(O)cc1)C(=O)NCC(=O)NCC(=O)O [Tyr-Gly-Gly, Tyrosyl-glycyl-glycine] (H-Tyr-Gly-Gly-OH)
Activity [1]: -

β-Casomorphin
Activity [1]: -

OCCS [β-Mercaptoethanol]
Inhibition (endopeptidase; [3]): +
reversibility of the inhibition of the enzyme (endopeptidase; β-mercaptoethanol): irreversible
endopeptidase activity inhibited (endopeptidase; β-mercaptoethanol 1%): inhibited

CCN1C(=O)C=CC1=O [N-Ethylmaleimide]
Inhibition (endopeptidase): -

C[C@H](NC(=O)[C@H](Cc1ccccc1)NC(=O)OCc1ccccc1)C(=O)O [Z-Phe-Ala]
Activity [1]: -

O=C(O)c1cc[c]([Hg][Cl])cc1 [pCMB, p-chloromercuribenzoate]
Inhibition (endopeptidase): -
endopeptidase activity inhibited (endopeptidase): did not have an effect on the activity

O=C(O)CCC(=O)N[C@@H](Cc1ccccc1)C(=O)Nc1ccc([N+](=O)[O-])cc1 [Nsucc-Phe-pNA]
Activity [1, 4]: -

C[C@H](NC(=O)[C@@H]1CCCN1C(=O)OCc1ccccc1)C(=O)O [Z-Pro-Ala] (Cbz-Pro-Ala-OH)
Activity [1]: -

CSCC[C@H](NC(=O)[C@H](Cc1ccccc1)NC(=O)CNC(=O)CNC(=O)[C@@H](N)Cc1ccc(O)cc1)C(=O)O [Metenkaphalin, Tyrosyl-glycyl-glycyl-phenylalanyl-methionine]
Activity [1]: +

β-Casein(203-209) (GPFPIIV; UniProt P02666 218-224, looked up, fragment)
Activity [1, 2]: +

β-Casein(184-202) (DMPIQAFLLYQEPVLGPVR; UniProt P02666 199-217, looked up, fragment)
Activity [1, 2]: +

CC(C)C[C@H](N)C(=O)NCC(=O)NCC(=O)O [Leu-Gly-Gly] (H-Leu-Gly-Gly-OH)
Activity [1, 2]: -

C[C@H](NC(=O)CCC(=O)O)C(=O)N[C@@H](C)C(=O)N[C@@H](C)C(=O)Nc1ccc([N+](=O)[O-])cc1 [Nsucc-Ala-Ala-Ala-pNA]
Activity [1]: -

Glucagon
Activity [1]: +
hydrolysis by LEP I (LEP I): cannot hydrolyse

CC(C)C[C@H](NC(=O)[C@@H](N)CC(C)C)C(=O)O [Leu-Leu]
Activity [1]: -

c1cnc2c(c1)ccc1cccnc12 [1,10-phenanthroline]
Inhibition (endopeptidase; [3]): +
endopeptidase activity inhibited (endopeptidase; chemical agent 1.0 mM): inhibited

Neurotensin
Activity [1]: +

CC(C)C[C@H](NC(=O)[C@@H]1CCCN1C(=O)[C@H](C)NC(=O)[C@H](C)NC(=O)CCC(=O)O)C(=O)Nc1ccc([N+](=O)[O-])cc1 [Nsucc-Ala-Ala-Pro-Leu-pNA] (Suc-AAPL-pNA)
Activity [1]: -

COC(CNC(=O)c1ccccc1OCC(=O)O)[CH2][Hg][OH] (stereo not drawn) [Mersalyl, O-(3-hydroxymercuri-2-methoxypropyl)-carbamylphenoxyacetate]
Inhibition (endopeptidase): -
endopeptidase activity inhibited (endopeptidase): did not have an effect on the activity

NCCCC[C@H](NC(=O)CNC(=O)c1ccccc1)C(=O)O [Bz-Gly-Lys] (Bz-Gly-Lys-OH)
Activity [1]: -

NCCCC[C@H](N)C(=O)Nc1ccc([N+](=O)[O-])cc1 [Lys-pNA]
Activity [1, 4]: -

C[C@H](NC(=O)[C@@H]1CCCN1C(=O)CN)C(=O)N1CCC[C@H]1C(=O)O [Gly-Pro-Ala-Pro] (H-GPAP-OH)
Activity [1]: -
